The record followed here is article PMC12703428, “Development of Granzyme A Turn‐ON Fluorescent Activity‐Based Probes” (Chembiochem, 2025).

Square brackets hold non-standard residues; d marks the D form. Ends that are not written are not given here. Oic = O=C(O)[C@@H]1C[C@@H]2CCCC[C@@H]2N1; Tic = O=C(O)[C@@H]1Cc2ccccc2CN1

One assay has as its target T1, GzmK (Homo sapiens, UniProt P49863).
T1 sequence (P49863 27-264): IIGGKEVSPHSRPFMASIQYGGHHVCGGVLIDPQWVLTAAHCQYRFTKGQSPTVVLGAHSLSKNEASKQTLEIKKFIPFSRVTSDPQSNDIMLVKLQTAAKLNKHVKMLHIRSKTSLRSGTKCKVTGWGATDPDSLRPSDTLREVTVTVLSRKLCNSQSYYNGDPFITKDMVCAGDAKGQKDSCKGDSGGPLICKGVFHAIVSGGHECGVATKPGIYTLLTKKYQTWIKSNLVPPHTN
The assay can be described thus: Cross-reactivity labeling, GzmK. It counts as biochemical. As to conditions: GzmK 100 nM, probe 10-100 nM, 2 h, 37 °C, in-gel fluorescence. Here is the method: Protease (100 nM) HNE PR3 GzmK GzmA
Protease (100 nM) GzmA GzmK
Supplementary Figure 2. Cross-reactivity of probes. (A) Labeling of GzmA, GzmK, PR3, and HNE
(100 nM, 2 h, 37 °C) by 100 nM of 5 and 6. (B) Labeling of GzmA and GzmK (100 nM, 2 h, 37 °C) by
100 nM of 3 – 6. (C) Concentration-dependent labeling of GzmA and GzmK (100 nM, 2 h, 37 °C) by 5 and
6. Protein samples were analyzed by SDS-PAGE and in-gel fluorescence scanning for Cy5 signal.
Protein loading was confirmed by SYPRO Ruby staining. […]

Assay [1] has as its system lysates of MDA‐MB‐231, HEK293T, Jurkat, and HeLa cells. The assay can be described thus: Labeling in lysates of GzmA nonexpressing cells. It counts as biochemical. The following applies: HeLa lysates 1 mg/mL, 1 h, 37 °C. As for the experimental part: Figure 4 Characterization of qABPs in native proteomes. A) Labeling of GzmA by 5 and 6 in lysates of various cell lines (1 h, 37 °C). B) Stability of 5 and 6 in buffer and cell media (11 h, 37 °C). The hydrolysis of probes was measured by monitoring the production of Cy5 fluorescence signal over time. […] C) Labeling of GzmA by probes 3 –6 in NK‐92 cells (2 h, 37 °C). D) Flow cytometry analysis of protein labeling in NK‐92 cells by 3 –5. […] E) Flow cytometry analysis of concentration‐dependent GzmA labeling in NK‐92 cells and S/N of 5 (5 μM, 2 h, 37 °C). […]
Briefly, hGzmA (50 nM) was incubated with either inhibitor 1 or 2 (200 nM), and GzmA fluorogenic substrate […] (100 µM) in 50 mM Tris, 150 mM NaCl, 0.01% Triton X-100 (pH 8) for 15 hr at 37 °C. Recorded fluorescence at Ex/Em: 380/460 nm for residual GzmA […]
Cat. No. CRL-2570) and 4T1 (ATCC Cat. No. CRL-2539) cells were cultured in RPMI supplemented with 10% fetal bovine serum (FBS), 1% penicillin/streptomycin (PS), and 2 mM L-glutamine, while HEK293T and MDA-MB-231 cells (ATCC Cat. No. HTB-26) were cultured in DMEM supplemented likewise as described above. […] The supernatant was collected, and protein concentration was measured using a Pierce BCA protein assay. […]
C. In-gel fluorescence imaging […]

In the case of IGNR [compound 5], the “Labeling of GzmK (cross-reactivity)” value at GzmK is “labeling was significantly weaker than for GzmA and required considerably higher probe concentrations”. Also, the “Cross-reactivity in lysates of GzmA nonexpressing cells” value in assay [1] is reported as “no detectable cross‐reactivity”.
[Tic]G[Oic]R [compound 6]: the “Labeling of GzmK (cross-reactivity)” value at GzmK is “labeling was significantly weaker than for GzmA and required considerably higher probe concentrations”. Besides, in assay [1], the “Cross-reactivity in lysates of GzmA nonexpressing cells” value is reported as “no detectable cross‐reactivity”.
